Where two headings read alike, the source gives them in different places.
What was measured:
[1] = biological target: T1, Ba/F3-FL-TYK2-P760L cells (Homo sapiens, UniProt P29597, P760L, cells depend on it); assay: Anti-proliferative assay, Ba/F3-FL-TYK2-P760L cells (Cell-Titer Glo); assay type: cell-based; conditions: 72 h, read-out: BaF3-FL-T2P760L IC50
T1 construct: BaF3-FL-T2P760L (nM)
How it was run: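 Ba/F3 cells made IL-3-independent by TEL-fused or full-length mutant JAK-family kinases, seeded at 2000/well and dosed after 24 h with 9 three-fold dilutions topping at 20 μM. Viability after 72 h at 37 °C, 5% CO2 by Cell-Titer Glo ATP luminescence.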

TYK2-JH2 domain = biological target: T2, TYK2-JH2 domain (Homo sapiens, UniProt P29597); assay: Binding activity test for JH2 domain of TYK2 (Tb-antibody/tracer FRET); conditions: for JAK1/TYK2 selectivity: ratio JAK1-JH2 IC50 / TYK2-JH2 IC50
T2 construct: IC50 on JH2 domain activity (nM)
How it was run: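 Compounds tested as 11-point 3-fold serial dilutions against the JH2 domain in a Tb-antibody/tracer FRET binding format. Plates incubated 60 min at 25° C, then overnight at 4° C, before FRET reading.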

JAK1-JH2 domain = biological target: T3, JAK1-JH2 domain (Homo sapiens, UniProt P23458); assay: Binding activity test for JH2 domain of JAK1 (Tb-antibody/tracer FRET)
T3 construct: IC50 on JH2 domain activity (nM)
Procedure: Binding Activity Test for […] Domain of JAK1 and TYK2 The compounds are prepared in DMSO for 200× top dose, then serial dilute it with 27-fold for 3 more points. Add 8 μL/well in echo source plate, echo will add 75 nL/well with 3-fold serial dilution for 11 points in assay plate. 75 nL DMSO for high control and low control. […] For low control, add 5 μL/well assay buffer. And then spin down at 1000 rpm and centrifuge for 30 seconds. After enzyme system prepared, add 5 μL of Tb-antibody solution into each wells of assay plate. Spin down at 1000 rpm and centrifuge for 30 sec. After Tb-antibody added, also add 5 μL of tracer into the assay plate. Spin down at 1000 rpm and centrifuge for 30 sec. Incubate for 60 mins at 25° C. firstly and then continue to incubate the plate at 4° C. overnight. Read by envision in FRET mode. The Luminescence value was recorded by a multi-label reader Envision (PerkinElmer).

pSTAT1 = assay: Phosphorylation inhibition of STAT in human whole blood, IFN-alpha stimulated (flow cytometry); assay type: cell-based; conditions: 20 min; human whole blood, IFN-alpha 20 mins, CD3 cells; read-out: IC50 on pSTAT1 inhibition in h WB
Procedure: Phosphorylation Inhibition of STAT in Human PBMC and Human Whole Blood Testing:
The inhibitory potential of test articles in human PBMC and human whole blood assay was evaluated by the method of flow cytometry.
IFN-alpha will activate JAK1 and TYK2 kinase in T cells by binding to IFN receptors, and then lead to phosphorylation of STAT1 and STAT2. The phosphorylated STAT1 enter nuclear and promote transcription and expression of IFN-gamma. To evaluate the efficacy of TYK2i in T cells, freshly prepared human PBMC or freshly collected human whole blood will be stimulated with certain unit of human IFN-alpha (Universal Type I IFN(1MU), R&D, 11200-2) for 20 mins in incubator. After stimulation, fix cells with Phosflow™ Fix Buffer I (BD, 557870), and then collect fixed cells by centrifugation (500 g, 8 min). Wash cells once with pre-cooled PBS, and then permeabilize cells with cold Perm Buffer III buffer (BD, 558050) for 45 mins on ice. Collect cells by centrifugation (600 g, 8 min) and washed twice with cold PBS. Stain cells with anti-human CD3 (FITC Mouse Anti-Human CD3, BD, 555332) and anti-pSTAT1_Y701(Alexa Fluor 647 Mouse Anti-Stat1 (pY701), BD, 612597) antibodies. Detect pSTAT1 by flow cytometry (CytoFlex S) and analyze data with FlowJo and GraphPad Prism 8 software. IC50 values of test articles were determined using 4-parameter logistic equation.

[2] = Hepatocytes metabolic stability assay; assay type: in vitro ADME; conditions: cryopreserved hepatocytes, human hepatocytes, 1.0×10^6 cells/mL; for CLint scaled at 1 μM: read-out: Human hepatocyte Clint(liver); for half-life at 1 μM: read-out: Human hepatocyte stability T1/2
Procedure: Hepatocytes Metabolic Stability Assay
The vials of cryopreserved hepatocytes were removed from the liquid nitrogen container and immediately immersed in a 37° C. water bath for approximately 2 min. The melted ice pellets were transferred into tubes containing 50 mL of pre-warmed thawing medium and mixed well by gently inverting the tubes, and then centrifuged at 500 rpm for 3 minutes at room temperature. The supernatants were discarded, and cell pellets were re-suspended by adding appropriate volumes of pre-warmed incubation medium. The cells viability of each species was determined using Trypan Blue exclusion. Add 50 μL of pre-warmed 2× dosing solution to the wells designated for different time points. Then 50 μL of cells suspension (2×10^6 cells/mL) were added into appropriate wells at corresponding time points of T15, T30, T60, T120. Start timing and put the plate in an incubator at 37° C. For TO sample, add 300 μL of ACN containing internal standard to the wells, mix gently, then add 50 μL of pre-warmed hepatocytes solution (2×10^6 cells/mL). The concentration of test compound was 1 μM and 1.0×10^6 cells/mL in the final incubation. At each corresponding time point, test and control compounds reaction samples were stopped by adding 300 μL acetonitrile containing internal standard. All sample plates were thoroughly mixed and centrifuged at 5000×g for 15 minutes. The supernatants were diluted at ratio of 1:1 with ultra-pure water for test and positive controls. Then submitted for LC-MS/MS analysis.
The analyte/internal standard peak area ratios were converted to percentage remaining with the following equation: […]
The in vitro elimination constant, k of test compounds and control compounds were calculated from a log linear plot of % Remaining versus time, then the half-life (T1/2), the estimation of the in vitro hepatic intrinsic clearance (CLint) values were calculated from substrate disappearance rate in hepatocytes incubation: […]

[3] = Microsomal metabolic stability assay; assay type: in vitro ADME; conditions: pH 7.4, 0.5 mg/mL protein, 1 μM compound
How it was run: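 Test article at 1 μM with 0.5 mg/mL microsomal protein and 2 mM NADPH, in 100 mM potassium phosphate pH 7.4 with 1.0 mM EDTA at 37 °C. Sampled at 0–45 min and quantified by LC/MS/MS. T1/2 from the slope of ln % remaining vs time.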

[4] = dog liver microsomes, read-out: Dog LM Clint
[5] = dog liver microsomes, read-out: Dog LM T½
[6] = human liver microsomes, read-out: Human LM Clint
[7] = human liver microsomes, read-out: Human LM T½
[8] = rat liver microsomes, read-out: Rat LM Clint
[9] = rat liver microsomes, read-out: Rat LM T½

T2 sequence (P29597 589-875 limits assumed): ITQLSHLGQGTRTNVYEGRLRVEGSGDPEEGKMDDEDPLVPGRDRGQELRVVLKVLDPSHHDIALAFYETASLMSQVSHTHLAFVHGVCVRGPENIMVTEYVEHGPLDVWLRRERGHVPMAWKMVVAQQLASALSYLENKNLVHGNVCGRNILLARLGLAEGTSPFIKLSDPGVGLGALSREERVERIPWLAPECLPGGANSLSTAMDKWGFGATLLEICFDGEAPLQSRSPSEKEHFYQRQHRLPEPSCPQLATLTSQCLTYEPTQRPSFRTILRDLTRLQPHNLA
T3 sequence (P23458 583-855 limits assumed): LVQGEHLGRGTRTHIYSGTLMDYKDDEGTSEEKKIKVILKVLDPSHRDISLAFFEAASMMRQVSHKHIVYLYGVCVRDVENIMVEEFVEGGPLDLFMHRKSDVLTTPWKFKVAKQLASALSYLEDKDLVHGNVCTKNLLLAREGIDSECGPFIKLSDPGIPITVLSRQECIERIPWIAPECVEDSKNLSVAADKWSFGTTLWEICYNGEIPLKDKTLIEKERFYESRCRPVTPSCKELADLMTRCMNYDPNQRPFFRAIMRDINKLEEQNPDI
T1 sequence (P29597 whole entry P760L): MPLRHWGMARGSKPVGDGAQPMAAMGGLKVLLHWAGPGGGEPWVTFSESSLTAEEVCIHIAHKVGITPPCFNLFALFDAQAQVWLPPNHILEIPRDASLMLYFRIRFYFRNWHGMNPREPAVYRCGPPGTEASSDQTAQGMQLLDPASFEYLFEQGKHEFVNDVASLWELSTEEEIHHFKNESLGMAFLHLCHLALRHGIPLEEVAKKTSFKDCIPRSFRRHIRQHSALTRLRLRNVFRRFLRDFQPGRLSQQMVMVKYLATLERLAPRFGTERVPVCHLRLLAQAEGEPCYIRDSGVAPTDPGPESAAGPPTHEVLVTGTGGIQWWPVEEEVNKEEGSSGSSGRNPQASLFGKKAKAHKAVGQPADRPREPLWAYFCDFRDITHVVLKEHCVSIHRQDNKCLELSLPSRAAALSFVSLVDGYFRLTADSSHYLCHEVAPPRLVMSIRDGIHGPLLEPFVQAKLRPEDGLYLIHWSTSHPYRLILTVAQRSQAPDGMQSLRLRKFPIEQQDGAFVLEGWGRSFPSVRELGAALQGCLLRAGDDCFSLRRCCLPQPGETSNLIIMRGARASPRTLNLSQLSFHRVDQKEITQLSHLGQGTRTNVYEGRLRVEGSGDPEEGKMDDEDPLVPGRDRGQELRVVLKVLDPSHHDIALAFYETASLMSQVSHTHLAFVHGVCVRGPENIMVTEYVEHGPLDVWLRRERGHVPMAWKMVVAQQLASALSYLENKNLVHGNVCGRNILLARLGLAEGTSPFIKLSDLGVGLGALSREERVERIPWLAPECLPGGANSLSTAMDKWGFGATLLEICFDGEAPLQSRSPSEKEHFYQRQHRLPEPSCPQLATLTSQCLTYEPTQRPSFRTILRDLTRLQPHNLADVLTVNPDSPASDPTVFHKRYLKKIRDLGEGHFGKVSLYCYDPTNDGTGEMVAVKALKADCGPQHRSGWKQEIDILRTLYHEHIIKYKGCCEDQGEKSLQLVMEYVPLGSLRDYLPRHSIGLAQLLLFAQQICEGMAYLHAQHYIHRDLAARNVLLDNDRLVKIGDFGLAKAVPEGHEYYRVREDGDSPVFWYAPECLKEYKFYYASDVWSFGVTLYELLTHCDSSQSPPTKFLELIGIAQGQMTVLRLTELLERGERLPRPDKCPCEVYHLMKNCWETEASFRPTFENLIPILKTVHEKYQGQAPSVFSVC

GI50 [1] [nM]	IC50 (TYK2-JH2 domain) [nM]	JAK1/TYK2 selectivity (TYK2-JH2 domain)	IC50 (JAK1-JH2 domain) [nM]	IC50 (pSTAT1) [nM]	CLint scaled at 1 μM [2] [mL/min/kg]	half-life at 1 μM [2] [h]	microsomal CLint at 1 μM [3, 4] [µL/min/mg]	half-life at 1 μM [3, 5] [h]	microsomal CLint at 1 μM [3, 6] [µL/min/mg]	half-life at 1 μM [3, 7] [h]	microsomal CLint at 1 μM [3, 8] [µL/min/mg]	half-life at 1 μM [3, 9] [h]	Compound
69.5	0.265	40.8	10.8	256	–	–	–	–	–	–	–	–	[2H]C([2H])([2H])NC(=O)c1cnc(NC(=O)[C@@H]2C[C@@H]2F)cc1Nc1ccc2cnn(CC)c2c1OC (relative stereo) [Example 256, 4-((1-Ethyl-7-methoxy-1H-indazol-6-yl)amino)-6-(cis-2-fluorocyclopropanecarboxamido)-N-(methyl-d3)nicotinamide]
–	–	–	–	–	< 17.8	> 3.61	–	–	–	–	–	–	[2H]C([2H])([2H])NC(=O)c1nnc(NC(=O)C2CC2)cc1Nc1cccc(-c2ncn(C)n2)c1OC [Example 41, 6-(Cyclopropanecarboxamido)-4-((2-methoxy-3-(1-methyl-1H-1,2,4-triazol-3-yl)phenyl)amino)-N-(methyl-d3)pyridazine-3-carboxamide]
44.4	–	–	–	–	< 7.35	> 4	31.9	0.725	7.54	3.06	47.4	0.488	[2H]C([2H])([2H])NC(=O)c1nnc2cc1Nc1cc(cc(-c3ncn(C)n3)c1OC)COCc1nc(ccc1F)N2 [Example 67, 18-Fluoro-10-methoxy-N-(methyl-d3)-11-(1-methyl-1H-1,2,4-triazol-3-yl)-15-oxa-2,4,5,8,21-pentaazatetracyclo[15.3.1.1^{3,7}.1^{9,13}]tricosa-1(20),3,5,7(23),9(22),10,12,17(21),18-nonaene-6-carboxamide]
146	0.733	–	–	–	8.69	3.38	10.4	2.22	5.58	4.14	45.9	0.503	[2H]C([2H])([2H])NC(=O)c1cnc(NC(=O)C2CC2)cc1Nc1nn(CC)c2ccn(CC(F)(F)F)c(=O)c12 [Example 105, 6-(Cyclopropanecarboxamido)-4-((1-ethyl-4-oxo-5-(2,2,2-trifluoroethyl)-4,5-dihydro-1H-pyrazolo[4,3-c]pyridin-3-yl)amino)-N-(methyl-d3)nicotinamide]
2390	–	–	–	344	–	–	–	–	–	–	–	–	[2H]C([2H])([2H])NC(=O)c1cnc(NC(=O)C2CC2)cc1Nc1cn(C)c2ccn(CCO)c(=O)c12 [Example 113, 6-(Cyclopropanecarboxamido)-4-((5-(2-hydroxyethyl)-1-methyl-4-oxo-4,5-dihydro-1H-pyrrolo[3,2-c]pyridin-3-yl)amino)-N-(methyl-d3)nicotinamide]
70.8	–	–	–	–	18.9	1.55	–	–	24	0.963	–	–	[2H]C([2H])([2H])NC(=O)c1cnc(NC(=O)C2CC2)cc1Nc1ccc2cnn(CC)c2c1OC([2H])([2H])[2H] [Example 132, 6-(Cyclopropanecarboxamido)-4-((1-ethyl-7-(methoxy-d3)-1H-indazol-6-yl)amino)-N-(methyl-d3)nicotinamide]
335	–	–	–	–	14.4	2.04	–	–	–	–	–	–	[2H]C([2H])([2H])NC(=O)c1cnc(Nc2cnn(C3CC3)c2)nc1Nc1ccc2cnn(CC)c2c1OC([2H])([2H])[2H] [Example 137, 2-((1-Cyclopropyl-1H-pyrazol-4-yl)amino)-4-((1-ethyl-7-(methoxy-d3)-1H-indazol-6-yl)amino)-N-(methyl-d3)pyrimidine-5-carboxamide]
53.9	0.357	70.6	25.2	–	13.9	2.12	42.1	0.548	79.9	0.289	106	0.221	[2H]C([2H])([2H])NC(=O)c1cnc(Nc2ccncn2)cc1Nc1cc(F)c2cnn(CC)c2c1OC [Example 157, 4-((1-Ethyl-4-fluoro-7-methoxy-1H-indazol-6-yl)amino)-N-(methyl-d3)-6-(pyrimidin-4-ylamino)nicotinamide]
46.6	0.173	106.7	18.5	468	–	–	–	–	–	–	–	–	[2H]C([2H])([2H])NC(=O)c1cnc(NC(=O)C2CC2)cc1Nc1nn(CC2CC2)c2ccn(CC(F)(F)F)c(=O)c12 [Example 203, 6-(Cyclopropanecarboxamido)-4-((1-(cyclopropylmethyl)-4-oxo-5-(2,2,2-trifluoroethyl)-4,5-dihydro-1H-pyrazolo[4,3-c]pyridin-3-yl)amino)-N-(methyl-d3)nicotinamide]
214	–	–	–	426	–	–	–	–	–	–	–	–	[2H]C([2H])([2H])NC(=O)c1nnc(NC(=O)C2CC2)cc1Nc1cn(C)c2ccn(C)c(=O)c12 [Example 224, 6-(Cyclopropanecarboxamido)-4-((1,5-dimethyl-4-oxo-4,5-dihydro-1H-pyrrolo[3,2-c]pyridin-3-yl)amino)-N-(methyl-d3)pyridazine-3-carboxamide]
278	1.77	41.4	73.7	–	–	–	16.9	1.37	12.1	1.91	15.4	1.5	[2H]C([2H])([2H])NC(=O)c1cnc(Nc2ccn(C)n2)cc1Nc1ncc2cnn(CC)c2c1OC [Example 264, 4-((1-Ethyl-7-methoxy-1H-pyrazolo[4,3-c]pyridin-6-yl)amino)-N-(methyl-d3)-6-((1-methyl-1H-pyrazol-3-yl)amino)nicotinamide]

Reference: patent publication US20250115597A1, “TYK2 INHIBITORS AND COMPOSITIONS AND METHODS THEREOF” (LYNK PHARMACEUTICALS CO. LTD., priority 2021, published 2025)
